This is an account of results in US20080269258A1, “Riboswitches, Structure-Based Compound Design with Riboswitches, and Methods and Compositions for Use of and with Riboswitches” (priority 2004, published 2008).

In experiment [1] the target is adenine riboswitch RNA (AR). The experiment can be described thus: Isothermal titration calorimetry, adenine riboswitch RNA. To be noted: 50 mM K+HEPES, pH 7.5, 100 mM KCl, 10 mM MgCl2, 30° C. The experiment is classed as binding. The method, then: Isothermal Titration Calorimetry. […] All experiments were performed with a Microcal MCS ITC instrument at 30° C. […] Titration data was analyzed using Origin ITC software (Microcal Software Inc.) and fit to a single-site binding model.

For experiment [2], the system named is guanine riboswitch RNA (GR). The experiment in a line: Isothermal titration calorimetry, guanine riboswitch RNA. In kind it is binding, B. subtilis. The source says:
Isothermal Titration Calorimetry. RNA for isothermal titration calorimetry (ITC) (Leavitt, S. & Freire, E. Direct measurement of protein binding energetics by isothermal titration calorimetry. Curr Opin Struct Biol 11, 560-6 (2001); Pierce, M., Raman, C. S. & Nall, B. T. Isothermal titration calorimetry of protein-protein interactions. […]
(Isothermal titration calorimetry measures the heat released or taken up as one component is titrated into another.)

The test system of experiment [3] is guanine riboswitch (aptamer of the xpt-pbuX mRNA). The experiment can be described thus: In-line probing of ligand binding to the guanine riboswitch in vitro. Details: species or system B. subtilis. As to conditions: for Kd: high Mg2+ ion concentrations (20 mM MgCl2), read-out: observed dissociation constant (Kd). The source says: The putative anti-terminator interaction is represented by the boxes. Nucleotides that undergo structural alteration as determined by in-line probing (from C) are identified with squares. […] Asterisks denote alterations to the RNA sequence that facilitate in vitro transcription (5′ terminus) or that generate a restriction site (3′ terminus). Nucleotide numbers begin at the first nucleotide of the natural transcription start site. The translation start codon begins at position 186. […] Lanes designated NR, T1 and ^−OH contain RNA that was not reacted, subjected to partial digestion with RNase T1 (G-specific cleavage), or subjected to partial alkaline digestion, respectively. Selected bands corresponding to G-specific cleavage are identified.
Differences in chemical structure relative to guanine are encircled. Numbers on guanine represent the positions of the ring nitrogen atoms.
NR, T1 and OH identify no reaction, nuclease T1 partial digestion, and alkaline partial digestion respectively. In-line probing assays were conducted for ˜1 day, and a dampening of spontaneous RNA cleavage product bands in the J1/2, J2/3 and J3/1 regions are indicative of ligand binding.

For another experiment, the target named is purR repressor protein (Escherichia coli, UniProt P0ACP7). To be noted: read-out: observed Kd; E. coli variant of purR repressor; cited from earlier work.
The test system of a further experiment is Haemophilus influenza. The experiment in a line: Minimal inhibitory concentration, clinically relevant pathogens. The experiment is classed as cell-based. To be noted: pathogen without guanine riboswitch, read-out: Minimal inhibitory concentrations, HI.
A further experiment has as its system Mycobacterium smegmatis. The description is as above. As to conditions: Mycolicibacterium smegmatis; pathogen without guanine riboswitch; read-out: Minimal inhibitory concentrations, MS. In kind it is cell-based.
A further experiment concerns Bacillus anthracis. The experiment can be described thus: microbe, parasite or virus in culture. The experiment is classed as cell-based. As to conditions: read-out: Minimal inhibitory concentrations, BA.
In experiment [4] the test system is methicillin-resistant Staphylococcus aureus. The experiment in a line: Minimal inhibitory concentration, clinically relevant pathogens. In kind it is cell-based. As to conditions: MRSA, read-out: Minimal inhibitory concentrations, MRSA.
The subject of a further experiment is Streptococcus pneumoniae. The experiment is described as above. The experiment is classed as cell-based. To be noted: read-out: Minimal inhibitory concentrations, SP.
Setting [5] is: 50 mM K+HEPES, 100 mM KCl, 10 mM MgCl2, 30° C.
Setting [6] is: 50 mM K+HEPES, 100 mM KCl, 10 mM MgCl2, 30° C., read-out: Kd.

Converted amounts (≈) assume the structure as drawn. Like-named read-outs stand apart in the source and are kept apart here.

Sequence of purR repressor protein (P0ACP7 whole entry): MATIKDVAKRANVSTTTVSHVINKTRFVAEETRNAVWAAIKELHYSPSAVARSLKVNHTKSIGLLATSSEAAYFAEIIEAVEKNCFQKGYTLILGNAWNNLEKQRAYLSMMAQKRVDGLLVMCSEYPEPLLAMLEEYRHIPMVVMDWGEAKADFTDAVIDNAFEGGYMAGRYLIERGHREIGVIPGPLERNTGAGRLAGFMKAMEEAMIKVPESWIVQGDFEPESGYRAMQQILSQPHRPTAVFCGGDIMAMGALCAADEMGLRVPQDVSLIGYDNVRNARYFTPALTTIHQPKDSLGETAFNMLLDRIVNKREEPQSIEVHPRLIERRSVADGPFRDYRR

Turning to `Nc1nc(N)c(N)c(N)n1` [2,4,5,6-Tetraaminopyrimidine], in experiment [1], the Kd amounted to 24900 ± 4250 nM, the ΔH is -43.2 ± 3.50 kcal/mol and the ΔS is −122 ± 12.0 Cal/mol · deg.
For `Nc1cc(N)nc(N)n1` [2,4,6-Triaminopyrimidine], in experiment [1], the Kd amounted to 18300 ± 1670 nM, the ΔH is -37.7 ± 0.23 kcal/mol and the ΔS is reported as −102 ± 0.70 Cal/mol · deg.
On the same counts, the results for `Nc1nc(N)c2[nH]cnc2n1` [2,6-Diaminopurine] are 17 ± 6 nM, -40.3 ± 2.91 kcal/mol and −97.6 ± 4.00 Cal/mol · deg.
In experiment [1], `Nc1ncc2[nH]cnc2n1` [2-Aminopurine] had a dissociation constant (Kd) of 251 ± 26 nM, a ΔH of -31.8 ± 2.64 kcal/mol and a ΔS of −73.9 ± 9.26 Cal/mol · deg. For the same compound, in experiment [2] (setting [5]), the ΔH was -46.4 ± 2.66 kcal/mol and the ΔS is recorded as −129 ± 8.20 cal/mol · deg. For the same compound, in experiment [2] (setting [6]), the Kd is 4360 ± 1200 nM.
In [1], `Nc1nc(F)nc2nc[nH]c12` [2-Fluoroadenine] yielded a dissociation constant Kd of 4020 ± 1070 nM, a ΔH of -37.4 ± 3.41 kcal/mol and a ΔS of −98.7 ± 11.8 Cal/mol · deg.
`Nc1nc(Br)c2[nH]cnc2n1` [6-Bromoguanine]: in experiment [1], the Kd was determined as 2700 ± 1160 nM, the ΔH is -50.4 ± 0.16 kcal/mol and the ΔS was −141 ± 1.90 Cal/mol · deg. Further, in [2] (setting [5]), the ΔH was -39.0 ± 7.79 kcal/mol and the ΔS is recorded as −103 ± 26.2 cal/mol · deg. Moreover, the Kd in experiment [2] (setting [6]) was determined as 2120 ± 560 nM.
As to `Nc1nc(Cl)c2nc[nH]c2n1` [6-Chloroguanine], in experiment [1], the dissociation constant (Kd) is 721 ± 44 nM, the ΔH was -44.3 ± 7.2 kcal/mol and the ΔS is reported as −98.6 ± 4.39 Cal/mol · deg. In experiment [2] (setting [5]), the ΔH was -43.6 ± 13.1 kcal/mol and the ΔS is −116 ± 43.2 cal/mol · deg. Besides, the Kd in experiment [2] (setting [6]) is 856 ± 14 nM.
Consider `Cc1ncnc2nc[nH]c12` [6-Methylpurine], for which, in experiment [1], the dissociation constant (Kd) was found to be 25200 ± 1630 nM, the ΔH was -31.5 ± 0.42 kcal/mol and the ΔS was −82.9 ± 1.25 Cal/mol · deg.
For the compound `CSc1nc(N)nc2nc[nH]c12` [6-Methylthioguanine], in experiment [2] (setting [5]), the ΔH was -24.5 ± 0.20 kcal/mol and the ΔS was −46.9 ± 0.24 cal/mol · deg. Moreover, the dissociation constant Kd in experiment [2] (setting [6]) was determined as 41.8 ± 3 nM.
On the same counts, the results for `Nc1nc2nc[nH]c2c(=S)[nH]1` [6-Thioguanine] are -40.6 ± 14.5 kcal/mol, −101 ± 47.5 cal/mol · deg and 73.7 ± 10 nM.
In experiment [2] (setting [5]), `Nc1nc2c(c(=O)[nH]1)CC=N2` [7-Deazaguanine] gave a ΔH of -42.0 ± 3.72 kcal/mol and a ΔS of −105 ± 11.7 cal/mol · deg. For the same compound, the Kd in [2] (setting [6]) was found to be 49 ± 13 nM.
With `Nc1ncnc2nc[nH]c12` [Adenine], in experiment [1], the Kd was 469 ± 41 nM, the ΔH was -34.5 ± 0.05 kcal/mol and the ΔS is listed as −84.8 ± 0.30 Cal/mol · deg.
In experiment [2] (setting [5]), `Nc1nc2nn[nH]c2c(=O)[nH]1` [Compound 8-Azaguanine, 8-Azaguanine] displayed a ΔH of -46.9 ± 9.87 kcal/mol and a ΔS of −121 ± 32.6 cal/mol · deg. Also, the Kd in experiment [2] (setting [6]) amounted to 48.7 ± 100 nM.
`Nc1nc2nc[nH]c2c(=O)[nH]1` [Guanine]: in experiment [3], the “affinity of the riboswitch for guanine over hypoxanthine” value is recorded as “tenfold” and the dissociation constant (Kd) worked out at 5 nM. In [2] (setting [5]), the ΔH is -53.5 ± 6.98 kcal/mol and the ΔS is given as −137 ± 24.8 cal/mol · deg. Also, the equilibrium dissociation constant (Kd) in experiment [2] (setting [6]) came out at 4 ± 3 nM.
For `O=c1[nH]cnc2nc[nH]c12` [Hypoxanthine], the Kd in experiment [3] is 50 nM; at purR repressor protein, 9000 nM; in experiment [2] (0.25 mM MgCl2, 30° C., read-out: Kd), 4000 ± 190 nM; in [2] (1.0 mM MgCl2, 30° C., read-out: Kd), 2990 ± 190 nM; in [2] (5.0 mM MgCl2, 30° C., read-out: Kd), 1340 ± 94 nM; in [2] (20 mM MgCl2, 30° C., read-out: Kd), 732 ± 34 nM. Further, the Kd was 759 ± 66 nM in [2] (setting [6]) and 3000 to 4000 nM in experiment [2] (ITC, more physiological ionic strength (0.25-1 mM Mg2+), read-out: observed Kd). Also, the ΔHobs is -41.9 ± 0.39 kcal/mol in [2] (0.25 mM MgCl2, 30° C.); -35.4 ± 0.93 kcal/mol in experiment [2] (1.0 mM MgCl2, 30° C.); -28.4 ± 0.48 kcal/mol in experiment [2] (5.0 mM MgCl2, 30° C.); -33.5 ± 0.43 kcal/mol in experiment [2] (20 mM MgCl2, 30° C.). The ΔSobs in experiment [2] (0.25 mM MgCl2, 30° C.) is given as −113 cal mol^−1 K^−1; in experiment [2] (1.0 mM MgCl2, 30° C.), −91 cal mol^−1 K^−1; in experiment [2] (5.0 mM MgCl2, 30° C.), −67 cal mol^−1 K^−1; in experiment [2] (20 mM MgCl2, 30° C.), −82 cal mol^−1 K^−1. Further, the ΔH in experiment [2] (setting [5]) is -31.3 ± 0.01 kcal/mol. The compound also came in with a ΔS in experiment [2] (setting [5]) of −75.3 ± 0.145 cal/mol · deg.
In [2] (setting [5]), `COc1nc(N)nc2nc[nH]c12` [O-Methylguanine] came in with a ΔH of -18.7 kcal/mol and a ΔS of −23.3 cal/mol · deg. For the same compound, the dissociation constant Kd in experiment [2] (setting [6]) stood at 3 nM.
In experiment [1], `c1ncc2[nH]cnc2n1` [Purine] showed a Kd of 110000 ± 3000 nM, a ΔH of -25.4 ± 0.99 kcal/mol and a ΔS of −65.4 ± 3.00 Cal/mol · deg.
In the case of `CN[C@H](CC(C)C)C(=O)N[C@H]1C(=O)N[C@@H](CC(N)=O)C(=O)N[C@H]2C(=O)N[C@H]3C(=O)N[C@H](C(=O)N[C@H](C(=O)O)c4cc(O)cc(O)c4-c4cc3ccc4O)[C@H](O)c3ccc(c(Cl)c3)Oc3cc2cc(c3O[C@@H]2O[C@H](CO)[C@@H](O)[C@H](O)[C@H]2O[C@H]2C[C@](C)(N)[C@H](O)[C@H](C)O2)Oc2ccc(cc2Cl)[C@H]1O` [Vancomycin], the MIC in the experiment on Haemophilus influenza came out at 64 µg/mL (≈ 44.2 µM); in the experiment on Mycobacterium smegmatis, 24 µg/mL (≈ 16.6 µM); in the experiment with Bacillus anthracis, 1.5 µg/mL (≈ 1.04 µM); in experiment [4], 1 µg/mL (≈ 0.69 µM); with Streptococcus pneumoniae, 0.25 µg/mL (≈ 0.173 µM).
In experiment [2] (setting [5]), `O=c1[nH]c(=O)c2[nH]cnc2[nH]1` [Xanthine] showed a ΔH of -34.6 ± 10.4 kcal/mol and a ΔS of −94.4 ± 34.5 cal/mol · deg. Also, in experiment [2] (setting [6]), the dissociation constant Kd was determined as 50500 ± 5800 nM.

One may read the Kd as the equilibrium constant for the complex coming apart.
